{"source": "patent US5053006A", "about": "“Method for the permanent occlusion of arteries” (priority 1990, dated 1991)", "key": {"corneal blood vessels": {"tested_on": "corneal blood vessels", "assay_type": "in vivo, New Zealand albino rabbit", "from_the_text": "Both corneal and limbal epithelia, along with the conjunctival epithelium 2-3 mm beyond the limbus, were removed from New Zealand albino rabbit eyes by n-heptanol debridement and surgical scraping (Huang et al., Ophthalmology, 95:228-235, 1988, the disclosure of which is hereby incorporated by reference and relied upon). The denuded corneas were healed by the remaining conjunctival epithelium within 9 to 12 days, of which 65% became extensively vascularized two to three weeks after healing. Sixteen corneas with persistent neovascularization of 20 months duration were subjected to photothrombotic treatment.\nOcclusion of corneal blood vessels was achieved by intravenous injection of the rose bengal solution at a dosage of 40 mg/kg body weight followed by irradiation of the blood vessels with an argon green laser beam (514.5 nm in wavelength) set at a power of 130 mW, beam spot size of 63 μm in diameter, and duration of 0.2 second. During the irradiation, the corneal surface was rinsed with a balanced salt solution maintained at 37° C. to ensure the efficacy of photothrombosis. The laser beam was applied to the limbus at the arborization point of each feeder vessel. In 12 corneas, the blood vessels on the upper half of the cornea were photothrombosed and those on the lower half were left untreated and used as an internal control. In the remaining four corneas, the blood vessels on the entire cornea were treated. Each blood vessel was occluded within 10 consecutive shots of irradiation. For all corneas, the treatment was completed within 30 minutes after initial injection of rose bengal solution. After laser irradiation, topical antibiotics and steroids were applied for two days. This treatment was similar to that described in Watson et al., Lasers Surg. Med., 7:127, 1987.\nExternal ocular examinations were performed to identify changes on the ocular surface before and after photothrombosis. Surface smoothness was examined by routine slitlamp biomicroscopy. External photographs were taken to document corneal clarity and regression of the vessels.\nOcclusion of the corneal blood vessels and the duration of occlusion were further studied by routine corneal fluorescein angiography using an intravenous injection of 1 ml of 10 mg/ml of sodium fluorescein. Photographs and angiograms were taken with a Zeiss surgical microscope. Baseline angiography was performed two to three days before photothrombosis to avoid possible photosensitizing effects from the fluorescein used for angiography. Follow-up angiograms were taken on the scheduled dates to document the occlusive effect and its duration. Late phase fluorescein angiograms (5 minutes after injection) were chosen for comparisons. After occlusion was confirmed by angiography, the rabbits were sacrificed on the prescheduled date and corneal buttons were obtained and subjected to epithelial differentiation studies. The total follow-up duration was 18 weeks."}, "[1]": {"test": "Absorption / excitation of the dye in tissue", "assay_type": "physicochemical", "from_the_text": "Examples of lasers that can be used to provide the light beam include the He-Ne laser, the argon ion laser and the argon-pumped dye laser. The 543.5 nm He-Ne laser, for example, can excite rose bengal with an efficiency of 58% of the maximum. (The wavelength at which excitation efficiency for rose bengal is maximal in tissue occurs at 562 nm.) Because the maximum theoretical power output is only 4 or 5 milliwatts, the 543.5 nm He-Ne laser is not used in clinical applications at this time. However, this laser is expected to be particularly useful in permanently occluding relatively low-flow arteries, smaller than about 200 μm, such as those in the choroid of the eye.\nThe argon ion laser is the most common clinical laser used at this time. Although the commonly used argon 514.5 nm line is only 36% efficient with respect to the maximum of rose bengal absorption, this laser is much more powerful (by at least a factor of 1000) and versatile than the He-Ne laser.\nThe absorption maximum of erythrosin B in endothelial tissue is at 536 nm, which is closer than that of rose bengal to the standard 514.5 nm wavelength of the argon ion laser."}, "[2]": {"tested_on": "middle cerebral artery (MCA)", "test": "He-Ne laser photochemically induced MCA thrombosis (Example 7)", "assay_type": "in vivo, rat (male Sprague-Dawley)", "description": "Normally fed male Sprague-Dawley rats weighting 280-330 gm were used. Anesthesia was induced with 4% halothane and maintained with 1.5% halothane, 70% N2 O and a balance of O2 delivered through a closely fitting face mask. Polyethylene catheters were inserted retrogradely into the right external carotid artery and right femoral artery and vein. The partial pressures of O2 and CO2 and the arterial pH were measured frequently. Rectal temperature was maintained at 37° C. by means of a heating pad.\nRats were mounted on a stereotaxic frame and the right MCA was exposed by a modified subtemporal approach. A portion of the jaw was removed, and the masseter muscle was retracted downward to facilitate exposure of the MCA. The mandibular joint was kept intact so as not to disturb normal feeding. To produce MCA occlusion in these studies, a low power He-Ne laser operating in the TEM^*01 (doughnut) mode at 0.8 mW and at a wavelength of 543.5 nm (PMS Electro-Optics, Boulder, CO.) was used. The efficiency of this laser in interacting with rose bengal dye is appreciable (58%) in that its emission wavelength is near the absorption maximum of rose bengal in tissue (562 nm). The animal was moutned in a stereotaxic frame, and its right side was tilted upward by 35° in order for the laser beam to strike the proximal MCA tangentially. The ring-shaped beam was focused transversely onto the exposed MCA by two crossed cylindrical lenses of 1- and 2-inch focal length. The resulting focused spot, rectangular in shape, was ~200 μm wide (spanning the diameter of the MCA perpendicular to its axis) and 40 μm high (parallel to the MCA axis).\nMCA thrombosis was induced in two steps. First, the linear beam was focused transversely on the MCA segment just distal to the rhinal branch. The intensity of laser irradiation at the focal site was 10 W/cm^2. Rose bengal was then injected intravenously (30 mg/ml in saline, 0.67 ml/kg bw weight). An orange fluorescence was immediately observed in the irradiated MCA segment, and a white thrombus began to form within the fluorescent segment and gradually elongated rostrally. […]"}}, "data": [{"smiles": "O=C([O-])c1c(Cl)c(Cl)c(Cl)c(Cl)c1-c1c2cc(I)c(=O)c(I)c-2oc2c(I)c([O-])c(I)cc12.[Na+].[Na+]", "note": "[rose bengal]", "values": [{"measurement": "consecutive shots to occlude each blood vessel", "setting": "corneal blood vessels; 40 mg/kg i.v., 130 mW, 0.2 second", "result": "≤ 10", "unit": "shots"}, {"measurement": "dye leakage in angiograms, treated areas", "setting": "corneal blood vessels; follow-up angiograms", "result": "free of dye leakage"}, {"measurement": "regression of occluded corneal blood vessels", "setting": "corneal blood vessels; four days after treatment", "result": "gradually regressed"}, {"measurement": "epithelial breakdown", "setting": "corneal blood vessels; rabbit, in vivo", "result": "No epithelial breakdown was observed"}, {"measurement": "persistence of hemorrhagic spots", "setting": "corneal blood vessels; rabbit, in vivo", "result": "two to three"}, {"measurement": "retention of rose bengal in corneas", "setting": "corneal blood vessels; rabbit, in vivo", "result": "all 16 corneas were clear of retained rose bengal"}, {"measurement": "occlusion of treated vessels", "setting": "corneal blood vessels; two corneas, 18 weeks", "result": "all treated vessels remained occluded without recanalization, and no new vessel growth elsewhere was observed"}, {"measurement": "excitation efficiency relative to maximum of absorption", "setting": "[1]; 514.5 nm argon line", "result": 36, "unit": "%"}, {"measurement": "excitation efficiency relative to maximum", "setting": "[1]; 543.5 nm He-Ne laser", "result": 58, "unit": "%"}, {"measurement": "gain in efficiency of endothelial photosensitization, factor", "setting": "[1]; argon-pumped dye laser (562 nm) over 514.5 nm argon line", "result": "≥ 3"}, {"measurement": "wavelength of maximal excitation efficiency / absorption maximum in tissue", "setting": "[1]; in tissue", "result": 562, "unit": "nm"}, {"measurement": "time to complete MCA occlusion", "setting": "[2]; 30 mg/ml, 0.67 ml/kg i.v., 543.5 nm He-Ne, first irradiation", "result": "≤ 10", "unit": "min"}, {"measurement": "thrombus length", "setting": "[2]; end of second irradiation", "result": "about 1.2 mm"}, {"measurement": "thrombus length", "setting": "[2]; first irradiation", "result": "~ 400 μm"}]}]}
